The results in this text go back to US4446141A, “Hypotensive piperidine derivatives” (priority 1978, dated 1984).

Structures can show the parent of a compound that is named as a salt. Where two headings read alike, the source gives them in different places.

Series [1] has as its system blood pressure. The series can be described thus: Experiment 6 Dosage-reaction curve, DOCA-NaCl loaded hypertensive rats. Format: in vivo, DOCA-sodium chloride loaded hypertensive rats. The following applies: average of five rats. The text has this: (§1) Experiment 6 Dosage-reaction curve: compared with betanidin
(§2) Five spontaneously hypertensive rats (16 weeks old) and five DOCA-sodium chloride loaded hypertensive rats (having been bred for 5 weeks after removing one kidney) were respectively used as one group.
(§3) As the test compounds, Compound 1 and betanidin sulfate, which is a known hypotensive agent, were used.
(§4) The test compounds were respectively dissolved in 0.3% (w/v) CMC aqueous solution and each of the resulting solutions was orally administered to the rats in a dose of 1 ml/100 g. The amounts of the solutions administered were equal per unit weight of rats and the concentrations thereof were varied according to the doses of the compounds indicated in Table 8. The maximum reduction in blood pressure after the administration was measured according to the method of tail artery plethysmography.

Series [2] has as its system blood pressure. Put plainly: Experiment 6 Dosage-reaction curve, spontaneously hypertensive rats. It counts as in vivo. Particulars: SHR, 50 mg/kg oral; average of five rats.
Text: as §1, §2, §3, §4

For series [3], the system named is male dd-strain mice. The following applies: mouse, in vivo.
The subject of series [4] is blood pressure. The series can be described thus: Experiment 3 Hypotensive action (maximum reduction in blood pressure). It counts as in vivo, Wistar-strain rats. The following applies: read-out: BP: Reduction of blood pressure.
[5] abbreviates: maximum reduction, oral, 5 mg per 100 g rat weight.

In the case of `CN=C(NC)NCc1ccccc1` [Betanidin sulfate, betanidin sulfate], the “maximum reduction in blood pressure” value was -25 mmHg in series [1] (1.0 mg/kg oral), -34 mmHg in series [1] (10 mg/kg oral), -58 mmHg in series [1] (50 mg/kg oral) and -40 mmHg in series [2].

On to `CCOc1nc2ccccc2n1C1CCN(CC(O)c2ccc3c(c2)OCO3)CC1` (stereo not shown) [Compound 11, 1-[2-hydroxy-2-(3,4-methylenedioxyphenyl)-1-ethyl]-4-(2-ethoxy-1-benzimidazolinyl)-piperidine], for which, in series [3], the “Number of Death I.P.” value was 0 and the “Number of Death P.O.” value is on record as 0. For the same compound, in series [4] (setting [5]), the inhibition in vivo at 50 mg/kg lay within 6 to 10%.

In the case of `O=c1[nH]c2ccccc2n1C1=CCN(CCc2ccc3c(c2)OCO3)CC1` [Compound 12, 1-[2-(3,4-methylenedioxyphenyl)-1-ethyl]-4-(2-keto-1-benzimidazolinyl)-1,2,5,6-tetrahydropyridine], in series [3], the “Number of Death I.P.” value stood at 0 and the “Number of Death P.O.” value stood at 0. In addition, the inhibition in vivo at 50 mg/kg in series [4] (setting [5]) is 6 to 10%.

With `COc1ccc(C(OC(C)=O)C(C)N2CCC(n3c(=O)n(C(C)=O)c4ccccc43)CC2)cc1OC` (stereo not shown) [Compound 32, 1-[3-acetoxy-3-(3,4-dimethoxyphenyl)-2-propyl]-4-(3-acetyl-2-keto-1-benzimidazolinyl)-piperidine], in series [3], the “Number of Death I.P.” value is 0 and the “Number of Death P.O.” value came out at 0. In series [4] (setting [5]), the inhibition in vivo at 50 mg/kg was above 11%.

As to `COc1ccc(C(OC(C)=O)C(C)N2CCC(n3c(=O)[nH]c4ccccc43)CC2)cc1OC` (stereo not shown) [Compound 34, 1-[3-acetoxy-3-(3,4-dimethoxyphenyl)-2-propyl]-4-(2-keto-1-benzimidazolinyl)-piperidine], in series [3], the “Number of Death I.P.” value worked out at 0 and the “Number of Death P.O.” value is listed as 0. The inhibition in vivo at 50 mg/kg in series [4] (Rattus norvegicus, po) was above 11%.

Regarding `CCOC(=O)n1c(=O)n(C2CCN(CC(=O)c3ccc(OC)c(OC)c3)CC2)c2ccccc21` [Compound 35, 1-[2-oxo-2-(3,4-dimethoxyphenyl)-1-ethyl]-4-(2-keto-3-ethoxycarbonyl-1-benzimidazolinyl)-piperidine], in series [3], the “Number of Death I.P.” value was determined as 0 and the “Number of Death P.O.” value is 0. In series [4] (setting [5]), the inhibition in vivo at 50 mg/kg is above 11%.
